Reference: patent US20030143172A1, “Hair treatment agent” (priority 2001, published 2003)

Experiments:
[1] = Ability of preventing hair damage caused by chlorine (color difference ΔE of hair); set-up: species or system human; details: aqueous 10 mM solution, chlorine water, one hour
Description: 120 ml of an aqueous 10 mM APS solution, 120 ml of an aqueous 10 mM AG solution and 120 ml of purified water each was poured into two bottles with a screw opening. In the aqueous 10 mM APS solution, the aqueous 10 mM AG solution or the purified water, hair of an adult and hair of a child, which were previously subjected to the measurement of color (L*a*b color specification) by a spectrocolorimeter (Macbeth Gretag APM50), each was immersed in an amount of 70 to 80 mg while stirring. To each solution in which the hair was immersed, 15 ml of a commercially available chlorine water (concentration of free chlorine: about 0.43%) was added. After stirring for one hour, the hair was filtered, washed with water and air-dried. The resulting hairs were measured on the color (L*a*b* color specification) and from the values obtained, the color difference ΔE value was calculated.

[2] = Ability of preventing decolorization of melanin pigment caused by chlorine (absorbance at 400 nm); set-up: species or system sepia officinailis; details: for 3 Hours After Addition abs / 6 Hours After Addition abs / Before Addition abs: 400 nm; for 3 Hours After Addition abs / Residual Ratio, 3H: 3 hours after addition of chlorine water; for 6 Hours After Addition abs / Residual Ratio, 6H: 6 hours after addition of chlorine water; for Before Addition abs: before addition of chlorine water (baseline)
Description: A melanin pigment (sepia officinailis) was added to a 2 N aqueous sodium hydroxide solution and dissolved under heating at 80° C. for 2 hours to adjust the melanin pigment content in the solution to 50 ppm. This melanin pigment solution was divided into 5 vessels and 5 kinds in total of sample solutions were prepared, namely, solutions adjusted to an APS concentration of 10 mM and 50 mM, solutions adjusted to an AG concentration of 10 mM and 50 mM, and a control having added thereto neither APS nor AG. Then, 4 ml of each solution was sampled in a sampling bottle and 0.5 ml of commercially available chlorine water (free chlorine concentration: about 0.43%) was added to each sampling bottle. As a blank, a melanin pigment solution was used. The prevention of melanin decolorization was evaluated by measuring the absorbance (abs) at 400 nm using a spectrophotometer when 3 hours (3 H) and 6 hours (6H) were passed after the addition of chlorine water.

[3] = Hydroxy radical-scavenging ability (ESR-spin trap method); type: biochemical
Description: Using “ESR-spin trap method”, the radical scavenging in percentage of each of ascorbyl 2-phosphate sodium salt (APS), ascorbyl 2-phosphate magnesium salt (APM) and ascorbyl 2-glucoside (AG) was measured. The radicals were chemically generated.
10 μl of 1M HEPES buffer solution (pH: 7.2), 10 μl of 1 mM diethylenetriaminepentaacetic acid, each of 20 μl of APS, APM or AG solution, 100 μl of purified water, 40 μl of 40 mM 2,2′-azobis(2-methylpropionamidine)dihydrochloride and 20 μl of 0.5 M 5,5-dimethyl-1-pyrroline-N-oxide were added and mixed. The obtained solutions were sequentially enclosed into flat cells for ESR and the cells were placed in an ESR apparatus (“JES-RE1X”, manufactured by JEOL Ltd.) and subjected to the measurement of hydroxy radical-scavenging ability. The hydroxy radical-scavenging ability is shown by S/M value (area value of spectrum/area value of manganese marker) and the scavenging ratio is shown by percentage (%).

[4] = Dechlorinating ability (iodometric titration of free chlorine in chlorine water); details: initial free chlorine 0.43
Description: To chlorine water having a previously determined free chlorine concentration, APS or AG was added and the amount of free chlorine decreased was measured. The free chlorine amount was measured by iodometric titiration.
To each of three Erlenmeyer flasks with a stopper, 10 ml of chlorine water having a known free chlorine concentration was added and thereto, APS or AG in an equimolar amount, 1.5 times molar amount or 2 times molar amount to the free chlorine in the solution was added and stirred. After 5 minutes, 10 minutes, 15 minutes and 20 minutes, the amount of free chlorine was titrated.
In the titration, 2 ml of each reaction solution was charged into another Erlenmeyer flask with a stopper, 50 ml of distilled water was added thereto, 1.0 g of potassium iodide and 1 ml of a 0.2% starch solution were further added and after stirring, a 0.1 N sodium thiosulfate standard solution was added dropwise. The point where purple color was faded out was designated as a final point. From the amount of sodium thiosulfate added dropwise at this time, the amount of free chlorine was calculated.

[5] = Ability of preventing hair damage caused by sunlight (weather meter irradiation, ΔE of hair); details: pH 7.2, irradiation 24 hours
Description: An APS solution, an AG solution, which were each adjusted to a pH of 7.2 and a concentration of 10 mM or 100 mM, and purified water (control) each was charged into a polyethylene bag and in respective bags, from 70 to 80 g of hair previously measured on the color (L*a*b* color specification) by a spectrocolorimeter (Macbeth Gretag APM50) was enclosed. After the immersion for about 2 hours, light was irradiated thereon using a weather meter (high energy xenon weather meter, manufactured by Suga Shikenki K. K.). The irradiation time was 24 hours and the integrated light intensity was about 10,000 kj/m^2. The hair after the irradiation was washed with purified water, air-dried and then subjected to the measurement of color (L*a*b* color specification) and from the values obtained, the color difference ΔE value was calculated.

[6] = molar ratio additive:free chlorine 1.0:1.0
[7] = molar ratio additive:free chlorine 1.5:1.0
[8] = molar ratio additive:free chlorine 2.0:1.0

Row | Compound | ΔE Value of Hair Treated With Chlorine ([1]; hair of child) | 3 Hours After Addition abs ([2]; additive 10 mM) [abs] | 6 Hours After Addition abs ([2]; additive 10 mM) [abs] | Before Addition abs ([2]; additive 10 mM) [abs] | Residual Ratio, 3H ([2]; additive 10 mM) | Residual Ratio, 6H ([2]; additive 10 mM) | 3 Hours After Addition abs ([2]; additive 50 mM) [abs] | 6 Hours After Addition abs ([2]; additive 50 mM) [abs] | Before Addition abs ([2]; additive 50 mM) [abs] | Residual Ratio, 3H ([2]; additive 50 mM) | Radical scavenging, % (S/M relative to 0 mM = 100.0) ([3]; concentration 0.01 mM) [%] | S/M (area value of spectrum/area value of manganese marker) ([3]; concentration 0.01 mM) | Radical scavenging, % (S/M relative to 0 mM = 100.0) ([3]; concentration 0.03 mM) [%] | S/M (area value of spectrum/area value of manganese marker) ([3]; concentration 0.03 mM) | Radical scavenging, % (S/M relative to 0 mM = 100.0) ([3]; concentration 0.1 mM) [%] | S/M (area value of spectrum/area value of manganese marker) ([3]; concentration 0.1 mM) | Radical scavenging, % (S/M relative to 0 mM = 100.0) ([3]; concentration 0.3 mM) [%] | S/M (area value of spectrum/area value of manganese marker) ([3]; concentration 0.3 mM) | Radical scavenging, % (S/M relative to 0 mM = 100.0) ([3]; concentration 1 mM) [%] | S/M (area value of spectrum/area value of manganese marker) ([3]; concentration 1 mM) | further results
1 | O=C1O[C@H]([C@@H](O)CO)C(O)=C1O[C@H]1O[C@H](CO)[C@@H](O)[C@H](O)[C@H]1O [AG, ascorbyl 2-glucoside] | 1.1 | 0.458 | 0.447 | 0.575 | 0.797 | 0.777 | 0.553 | 0.540 | 0.569 | 0.972 | 98.5 | 0.64 | 89.2 | 0.58 | 98.5 | 0.64 | 90.8 | 0.59 | 61.5 | 0.40 | Residual Ratio, 6H ([2]; additive 50 mM): 0.949; Free chlorine After 5 Minutes [4, 6]: 0.033%; Free chlorine After 10 Minutes [4, 6]: 0.02%; Free chlorine After 15 Minutes [4, 6]: 0.01%; Free chlorine After 20 Minutes [4, 6]: 0%; Free chlorine After 5 Minutes [4, 7]: 0.008%; Free chlorine After 10 Minutes [4, 7]: 0%; Free chlorine After 15 Minutes [4, 7]: 0%; Free chlorine After 20 Minutes [4, 7]: 0%; Free chlorine After 5 Minutes [4, 8]: 0%; Free chlorine After 10 Minutes [4, 8]: 0%; Free chlorine After 15 Minutes [4, 8]: 0%; Free chlorine After 20 Minutes [4, 8]: 0%; ΔE Value of Weather Meter Treated-hair ([5]; concentration 10 mM): 10.72; ΔE Value of Weather Meter Treated-hair ([5]; concentration 100 mM): 6.01
2 | O=C1O[C@H]([C@@H](O)CO)C([O-])=C1OP(=O)([O-])[O-].O=C1O[C@H]([C@@H](O)CO)C([O-])=C1OP(=O)([O-])[O-].[Mg+2].[Mg+2].[Mg+2] [APM, ascorbyl 2-phosphate magnesium salt] | – | – | – | – | – | – | – | – | – | – | 89.2 | 0.58 | 92.3 | 0.60 | 81.5 | 0.53 | 64.6 | 0.42 | 18.5 | 0.12 | –
3 | O=C1O[C@H]([C@@H](O)CO)C([O-])=C1OP(=O)([O-])[O-].[Na+].[Na+].[Na+] [APS, ascorbyl 2-phosphate sodium salt] | 0.5 | 0.449 | 0.453 | 0.577 | 0.773 | 0.785 | 0.545 | 0.505 | 0.592 | 0.921 | 103.1 | 0.67 | 104.6 | 0.68 | 78.5 | 0.51 | 53.8 | 0.35 | 16.9 | 0.11 | ΔE Value of Hair Treated With Chlorine ([1]; hair of Adult person): 0.4; Residual Ratio, 6H ([2]; additive 50 mM): 0.853; Free chlorine After 5 Minutes [4, 6]: 0.02%; Free chlorine After 10 Minutes [4, 6]: 0.012%; Free chlorine After 15 Minutes [4, 6]: 0.008%; Free chlorine After 20 Minutes [4, 6]: 0%; Free chlorine After 5 Minutes [4, 7]: 0.005%; Free chlorine After 10 Minutes [4, 7]: 0%; Free chlorine After 15 Minutes [4, 7]: 0%; Free chlorine After 20 Minutes [4, 7]: 0%; Free chlorine After 5 Minutes [4, 8]: 0%; Free chlorine After 10 Minutes [4, 8]: 0%; Free chlorine After 15 Minutes [4, 8]: 0%; Free chlorine After 20 Minutes [4, 8]: 0%; ΔE Value of Weather Meter Treated-hair ([5]; concentration 10 mM): 14.36; ΔE Value of Weather Meter Treated-hair ([5]; concentration 100 mM): 4.54
